Reference: article PMC3778450, “Agonists and antagonists induce different palonosetron dissociation rates in 5-HT3A and 5-HT3AB receptors^” (Neuropharmacology, 2013)
Where two headings read alike, the source gives them in different places.

Columns and labels:
5-HT3AB receptors [1] = biological target: T1, 5-HT3AB receptors (Homo sapiens, UniProt P46098); experiment: Radioligand association and dissociation kinetics, HEK293 membranes; format: binding; design: dissociation k−1 (mean ± S.E.M): unit not given here
T1 construct: expressed in transfected cells; host or cells: HEK293
T1 sequence (P46098 24-478): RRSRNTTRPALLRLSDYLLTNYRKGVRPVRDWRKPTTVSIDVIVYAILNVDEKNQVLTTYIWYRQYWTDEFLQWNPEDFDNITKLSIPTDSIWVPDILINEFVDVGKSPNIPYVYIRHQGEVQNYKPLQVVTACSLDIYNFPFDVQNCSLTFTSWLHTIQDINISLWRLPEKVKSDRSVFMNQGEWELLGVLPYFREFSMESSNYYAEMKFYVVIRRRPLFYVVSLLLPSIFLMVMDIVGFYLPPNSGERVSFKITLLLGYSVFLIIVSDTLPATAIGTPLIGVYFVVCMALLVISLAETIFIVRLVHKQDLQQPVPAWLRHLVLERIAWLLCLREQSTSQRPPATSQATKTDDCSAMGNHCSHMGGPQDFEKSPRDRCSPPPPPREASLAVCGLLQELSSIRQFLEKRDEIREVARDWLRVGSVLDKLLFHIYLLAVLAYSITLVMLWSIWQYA
T1 sequence (O95264 22-441 partner): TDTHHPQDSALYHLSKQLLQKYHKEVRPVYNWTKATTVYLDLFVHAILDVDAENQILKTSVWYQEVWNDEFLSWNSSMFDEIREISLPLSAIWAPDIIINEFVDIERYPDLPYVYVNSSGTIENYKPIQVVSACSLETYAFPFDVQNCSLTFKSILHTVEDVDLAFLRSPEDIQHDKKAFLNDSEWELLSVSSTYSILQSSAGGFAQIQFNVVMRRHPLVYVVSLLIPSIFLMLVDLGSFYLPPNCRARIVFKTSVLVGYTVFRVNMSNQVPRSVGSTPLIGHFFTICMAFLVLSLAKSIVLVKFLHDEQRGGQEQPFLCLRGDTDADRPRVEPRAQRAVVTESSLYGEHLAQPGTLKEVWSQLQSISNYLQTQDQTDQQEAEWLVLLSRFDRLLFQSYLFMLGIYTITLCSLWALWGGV
Procedure: (§1) Human embryonic kidney (HEK) 293 cells were maintained on 90 mm tissue culture plates at 37 °C and 7% CO2 in a humidified atmosphere. They were cultured in DMEM:F12 (Dulbecco's Modified Eagle Medium/Nutrient Mix F12 (1:1)) with GlutaMAX™ I media containing 10% foetal calf serum and passaged when confluent. For radioligand binding studies cells in 90 mm dishes were transfected using PEI and incubated for 3–4 days before use. For functional studies cells were plated on 96 well plates, transfected using the Neon transfection system (Invitrogen) and incubated 1–2 days before assay. Mutagenesis reactions were performed using QuikChange (Agilent Technologies Inc., CA, USA) using human 5-HT3A or 5-HT3B receptor subunit cDNA (accession numbers: P46098 or O95264) in pcDNA3.1 (Invitrogen, Paisley, UK). Subunit numberings have been altered to the aligning residues in the mouse 5-HT3A receptor.
(§2) Briefly, transfected HEK293 cells were washed twice with phosphate buffered saline (PBS) at room temperature and scraped into 1 ml of ice-cold HEPES buffer (10 mM, pH 7.4) containing the following proteinase inhibitors (PI): 1 mM EDTA, 50 μg ml^−1 soybean trypsin inhibitor, 50 μg/ml bacitracin and 0.1 mM phenylmethylsulphonyl fluoride. […] Non-specific binding was determined using 10 μM quipazine. […] All samples were terminated by vacuum filtration using a Brandel cell harvester onto GF/B filters pre-soaked in 0.3% polyethyleneimine. Radioactivity was determined by scintillation counting using a Beckman LS6000SC (Fullerton, California, USA).
(§3) Data were analysed by iterative curve fitting using Prism software (GraphPad, San Diego, California, USA). Determination of Ki values was performed using the Cheng–Prusoff equation. Values are presented as mean ± SEM, n = 3–6.

[2] = biological target: T2, 5-HT3 receptors expressed in oocytes (Homo sapiens, UniProt P46098); experiment: Recovery from palonosetron inhibition after washout in oocytes; format: cell-based; details: after a 10 min wash; data not shown
T2 sequence (P46098 24-478): T1 sequence (P46098 24-478)

5-HT3AB receptors [3] = biological target: T1, 5-HT3AB receptors; experiment: [3H]granisetron competition binding, HEK293 membranes; details: displacement of [3H]granisetron
Procedure: as §1, §2, §3

5-HT3A receptors [4] = biological target: T3, 5-HT3A receptors (Homo sapiens, UniProt P46098); experiment: as above; details: displacement of [3H]granisetron
T3 construct: expressed in transfected cells; host or cells: HEK293
T3 sequence (P46098 24-478): T1 sequence (P46098 24-478)
Procedure: as §1, §2, §3

5-HT3AB receptors [5] = biological target: T1, 5-HT3AB receptors; experiment: Flexstation membrane potential dye assay, inhibition of 5-HT-induced responses; format: cell-based; details: for relative Fmax: relative to 0 palonosetron (100%), typical example; for IC50: palonosetron preincubated 45 min before 5-HT, HEK293 cells
Procedure: as §1
(§4) Fluorescence was measured in a FLEXstation™ (Molecular Devices Ltd., Wokingham, UK) every 2 s for 200 s using the acquisition software SOFTmax® PRO v4.3.
as §3

5-HT3A receptors [6] = biological target: T3, 5-HT3A receptors; experiment: as above; format: cell-based; details: for relative Fmax: relative to 0 palonosetron (100%), typical example; for IC50: HEK293 cells
Procedure: as §1, §4, §3

[7] = test system: 5-HT3 receptors, NG108-15 cells; design: method as in Wong et al., 1995; details: ref Wong et al., 1995; cited from earlier work
[8] = biological target: 5-HT3 receptors, human hippocampus; design: method as in Wong et al., 1995; details: ref Wong et al., 1995; cited from earlier work
5-HT3A receptors [9] = biological target: T3, 5-HT3A receptors; experiment: Radioligand association and dissociation kinetics, HEK293 membranes; format: binding; design: dissociation k−1 (mean ± S.E.M): unit: h−1
Procedure: as §1, §2, §3

5-HT3 receptors = test system: 5-HT3 receptors; design: method as in Wong et al., 1995; details: ref Wong et al., 1995, cited from earlier work
[10] = test system: 5-HT3 receptors, transfected HEK293 cells; design: method as in Rojas et al., 2008; details: ref Rojas et al., 2008; cited from earlier work
[11] = test system: 5-HT3 receptor-expressing HEK293 cells; details: cited from earlier work; for [3H]palonosetron remaining: ref Rojas et al., 2010
5-HT3AB receptors [12] = biological target: T1, 5-HT3AB receptors; experiment: [3H]palonosetron saturation binding, HEK293 membranes; details: 24 h, 4 °C
Procedure: as §1, with “Mutagenesis reactions were performed using QuikChange (Agilent Technologies Inc., CA, USA) using human 5-HT3A or 5-HT3B receptor subunit cDNA (accession numbers: P46098 or O95264) in pcDNA3.1 (Invitrogen, Paisley, UK). Subunit numberings have been altered to the aligning residues in the mouse 5-HT3A receptor.” left out
(§5) Briefly, transfected HEK293 cells were washed twice with phosphate buffered saline (PBS) at room temperature and scraped into 1 ml of ice-cold HEPES buffer (10 mM, pH 7.4) containing the following proteinase inhibitors (PI): 1 mM EDTA, 50 μg ml^−1 soybean trypsin inhibitor, 50 μg/ml bacitracin and 0.1 mM phenylmethylsulphonyl fluoride. […] Non-specific binding was determined using 10 μM quipazine. […] Radioactivity was determined by scintillation counting using a Beckman LS6000SC (Fullerton, California, USA).
(§6) Data were analysed by iterative curve fitting using Prism software (GraphPad, San Diego, California, USA). […]

5-HT3A receptors [13] = biological target: T3, 5-HT3A receptors; experiment: as above; details: 24 h, 4 °C
Procedure: as §1, with “Mutagenesis reactions were performed using QuikChange (Agilent Technologies Inc., CA, USA) using human 5-HT3A or 5-HT3B receptor subunit cDNA (accession numbers: P46098 or O95264) in pcDNA3.1 (Invitrogen, Paisley, UK). Subunit numberings have been altered to the aligning residues in the mouse 5-HT3A receptor.” left out
as §5, §6

[14] = agonist-induced dissociation (5-HT or quipazine)
[15] = displacing ligand MDL72222 (1 μM)
[16] = displacing ligand unlabelled palonosetron (100 nM)
[17] = displacing ligand 5-HT (100 μM)
[18] = displacing ligand quipazine (10 μM)

Compound: O=C1c2cccc3c2[C@H](CCC3)CN1[C@@H]1CN2CCC1CC2 [Palonosetron, palonosetron]
- dissociation t1/2 (5-HT3AB receptors [1]; [14]): > 10 h
- dissociation t1/2 (5-HT3AB receptors [1]; [15]): 1.7 h
- dissociation t1/2 (5-HT3AB receptors [1]; [16]): 1.0 h
- original response recovered after washout [2]: < 10%
- IC50 (5-HT3AB receptors [3]; 4 °C): 0.71 nM
- Ki (5-HT3AB receptors [3]; Cheng–Prusoff): 0.35 nM
- IC50 (5-HT3A receptors [4]; 4 °C): 0.6 nM
- Ki (5-HT3A receptors [4]; Cheng–Prusoff): 0.3 nM
- relative Fmax (5-HT3AB receptors [5]; 0.1 nM palonosetron): 62%
- relative Fmax (5-HT3AB receptors [5]; 0.3 nM palonosetron): 28%
- IC50 (5-HT3AB receptors [5]; read-out: IC50): 0.18 nM
- IC50 (5-HT3AB receptors [5]; read-out: pIC50 (converted)): 0.186 nM
- relative Fmax (5-HT3A receptors [6]; 0.1 nM palonosetron): 70%
- relative Fmax (5-HT3A receptors [6]; 0.3 nM palonosetron): 40%
- IC50 (5-HT3A receptors [6]; palonosetron co-applied with 5-HT, read-out: IC50): 83 nM
- IC50 (5-HT3A receptors [6]; palonosetron preincubated 45 min before 5-HT, read-out: IC50): 0.24 nM
- IC50 (5-HT3A receptors [6]; palonosetron preincubated 45 min before 5-HT, read-out: pIC50 (converted)): 0.245 nM
- Kd [7]: 0.05 nM
- Kd [8]: 0.15 nM
- dissociation t1/2 (5-HT3A receptors [9]; [14]): > 10 h
- dissociation t1/2 (5-HT3A receptors [9]; [15]): 2.3 h
- dissociation t1/2 (5-HT3A receptors [9]; [16]): 1.5 h
- dissociation t½ (5-HT3 receptors; previous studies): 8 to 10 min
- Kd [10]: 0.2 nM

Compound: O=C1c2cccc3c2[C@H](CCC3)CN1[C@@H]1CN2CCC1CC2 [[^3H]palonosetron]
- association k (5-HT3AB receptors [1]): 0.35 ± 0.06
- association t1/2 (5-HT3AB receptors [1]): 2.0 min
- dissociation k−1 (mean ± S.E.M) (5-HT3AB receptors [1]; [17]): 0.057 ± 0.008
- dissociation t1/2 (5-HT3AB receptors [1]; [17]): 12.1 h
- dissociation k−1 (mean ± S.E.M) (5-HT3AB receptors [1]; [15]): 0.41 ± 0.04
- dissociation k−1 (mean ± S.E.M) (5-HT3AB receptors [1]; [18]): 0.068 ± 0.003
- dissociation t1/2 (5-HT3AB receptors [1]; [18]): 10.1 h
- dissociation k−1 (mean ± S.E.M) (5-HT3AB receptors [1]; [16]): 0.68 ± 0.08
- [3H]palonosetron remaining associated ([11]; HEK293 cells after a 2.5 h wash, ref Rojas et al. (2008)): 53 ± 11%
- [3H]palonosetron remaining ([11]; cell-free membrane preparation after a 60 min wash): 2%
- [3H]palonosetron remaining ([11]; cells after a 60 min wash): 65%
- association k (5-HT3A receptors [9]): 0.16 ± 0.03
- association t1/2 (5-HT3A receptors [9]): 4.1 min
- [3H]palonosetron remaining (5-HT3A receptors [9]; after 2 h dissociation in the presence of MDL72222): 67 ± 7%
- dissociation k−1 (mean ± S.E.M) (5-HT3A receptors [9]; [17]): 0.032 ± 0.005
- dissociation t1/2 (5-HT3A receptors [9]; [17]): 21.9 h
- dissociation k−1 (mean ± S.E.M) (5-HT3A receptors [9]; [15]): 0.29 ± 0.03
- dissociation k−1 (mean ± S.E.M) (5-HT3A receptors [9]; [18]): 0.056 ± 0.003
- dissociation t1/2 (5-HT3A receptors [9]; [18]): 12.5 h
- dissociation k−1 (mean ± S.E.M) (5-HT3A receptors [9]; [16]): 0.44 ± 0.05
- dissociation t1/2 (5-HT3A receptors [9]; [16]): 1.5 h
- Kd (5-HT3AB receptors [12]): 0.15 nM
- Kd (5-HT3A receptors [13]): 0.34 nM
- time to complete association (5-HT3 receptors; previously reported): under 10 min
